Laboratory results as given in patent US7928236B2, “Fluorescent amino acid derivatives” (National University Corporation Okayama University, priority 2005, dated 2011).

How the values were obtained:
[1] = 0.01M NaOH, on the literature; cited from earlier work
[2] = TBS buffer, measured on FluoroMax, values on the literature; cited from earlier work
Fluorescence lifetime = assay type: physicochemical; settings: 50 mM PBS (pH7.0), 3×10^−4M, room temperature, excitation 415 nm, measured at 500 nm
Experimental: Boc-badAla-OH prepared in Example 2 was dissolved in 50 mM PBS (pH7.0) in a concentration of 3×10^−4M, and fluorescence intensity was measured at room temperature at 500 nm, setting the excitation wavelength at 415 nm of blue laser from a simple-type beam system, using Hamamatsu “microchannel photomultiplier tube” supplied by Hamamatsu Photonics K.K. which was cooled to −30° C., and then fluorescence lifetime was measured.
As a result, the obtained fluorescence lifetime was τ=16.6 nanoseconds.
While the lifetime of BODIPY, a commercial product, was 5.7 nanoseconds (MeOH) on the literature, and that of FITC was 4.1 nanoseconds (0.01M NaOH) on the literature. The other primary spectroscopic properties of fluorescent probes were listed on the homepage of IOM GmbH (see, www.iom-berlin.de).

Photostability = assay type: physicochemical; settings: water, 1.2×10^−6M, room temperature, continuous 468 nm irradiation for an hour
Experimental: Boc-badAla-OH prepared in Example 2 was dissolved in water in a concentration of 1.2×10^−6M, and photostability was examined at room temperature using ISA “FluoroMax-2” analyzer, irradiating a beam of 468 nm excitation wavelength continuously for an hour. As a result, […] an hour after the irradiation, it held 95% fluorescence intensity of that at the start of the experiment (FIG. 6). […] On the other hand, values of commercial products BODIPY and FITC shown on the literature, obtained by dissolving them respectively in TBS buffer for measurement on FluoroMax, were respectively 88% and 85%.

Absorption spectrum = assay type: physicochemical; settings: in ethanol, water and ethanol/water (6:4), 2.3×10^−5M, room temperature
Experimental: Boc-badAla-OH prepared in Example 2 was dissolved respectively in ethanol, water and a mixture of ethanol and water (6:4) in a concentration of 2.3×10^−5M, and their absorption spectra were measured at room temperature using JASCO “V560” supplied by JASCO Corporation.

Structure (SMILES) | fluorescence lifetime [1] | photostability (fluorescence intensity held) [2] | fluorescence lifetime τ (Fluorescence lifetime) | fluorescence intensity held relative to start of experiment (Photostability) | maximum absorption wavelength (Absorption spectrum)
O=C1OC2(c3ccc(O)cc3Oc3cc(O)ccc32)c2ccc(N=C=S)cc21 [FITC] | 4.1 nanoseconds | 85% | – | – | –
CC(C)(C)OC(=O)NC(Cc1ccc2[nH]c3cc4ccccc4cc3c(=O)c2c1)C(=O)O (centres unmarked) [Boc-badAla-OH] | – | – | 16.6 nanoseconds | 95% | around 460 nm
